Measured values from patent US20230236172A1, “T Cells That Respond To Patient Neoepitopes” (NantCell, Inc., priority 2020, published 2023).

Tested on: T cells generated with E. coli expressed polytope
Assay: ELISPOT with in vitro translated epitope peptides on the polytope-generated T cell line (FIG. 10)
Assay type: cell-based, human
Procedure: An exemplary synthetic DNA template for creating neoepitope peptides in vitro is depicted below, and the corresponding sequences are shown in SEQ ID NO:18, SEQ ID NO:19, SEQ ID NO:20, and SEQ ID NO:21 respectively.
One template strand oligo per epitope plus sense strand universal promoter oligo was used. […] Rather the reaction required simply adding annealed oligos to expression mix, and the mixture was allowed to react for 2 hours.

Sequence | Recognition of epitope by T cells in the T cell line
WQAGILARNLVPMVATVQGQNLKYQ (IVT&T peptide9) | recognized by T cells
FMRPHERNGFTVLCPKNMIIKPGKI [E6] | recognized by T cells
